In patent publication US12433877B2, “Sustained release drug delivery systems and related methods” (Durect Corporation, priority 2021, dated 2025):
“And” between values parts separate entries of the source, which are not always exact repeats. Equal entries are not always repeated.

Columns and labels:
[1] = Example 9: 2,6-dimethylaniline standard in different color glassware, electrochemical detection; format: physicochemical; details: for Observed Concentration of Standard: prepared at 3 ng/mL
Description: For analysis, an aliquot of formulation was diluted 250 times with an aqueous buffer/methanol/acetonitrile diluent. After solubilization of the sample, a small aliquot is transferred into an HPLC vial for analysis using an electrochemical detector.
A series of experiments was conducted examining the effects of amber and red colored glassware on the stability of the 2,6-dimethylaniniline reference standard, using electrochemical detection, at a concentration of 3 ng/mL in an aqueous buffer/methanol solution.
In Experiment 1, the 2,6-dimethylaniline was prepared at a concentration of 3 ng/mL in a clear, colorless glass 100 mL volumetric flask. Aliquots were transferred into clear HPLC glass vials, and assayed against external standards. The 3 injections of the 2,6-dimethylaniline were consistently near 3 ng/mL.
In Experiment 2, the 2,6-dimethylaniline solution at 3 ng/mL prepared in a clear, colorless glass 100 mL volumetric flask was transferred to amber HPLC vials.
An aliquot was transferred into a clear HPLC glass vial, and assayed against external standards. The sample injection had the same 2,6-dimethylaniline concentration value as that in Experiment 1.
In Experiment 4, the 2,6-dimethylaniline solution at 3 ng/mL prepared in the red colored glass 100 mL volumetric flask coated with RAY-SORB® was transferred to an amber HPLC vial.

[2] = system: bacterial reverse mutation; test: In vitro bacterial reverse mutation assay (Ames assay); format: cell-based
From the text: (§1) Bupivacaine was negative in the in vitro bacterial reverse mutation assay (Ames assay), the in vitro chromosomal aberration assay (human peripheral blood lymphocytes, and the in vivo rat micronucleus assay.

[3] = system: human peripheral blood lymphocytes; test: In vitro chromosomal aberration assay; format: cell-based
From the text: as §1

clinical [4] = details: human, in vivo
Description: Additionally, alpha 1 acid glycoprotein (AAG) plasma concentrations were measured in these two groups for correlation with free bupivacaine concentrations.
Using non-compartmental methods the following PK parameters were calculated from the plasma concentrations of each compound: area under the plasma concentration vs. time curve until the last measured concentration (AUCt), area under the plasma concentration vs. time curve extrapolated until infinity (AUCinf), the maximum concentration (Cmax), the time of its occurrence (tmax) and the apparent terminal elimination half-life (t1/2). […] The average […] of bupivacaine was approximately 5.2%; free bupivacaine plasma concentrations generally paralleled those of total bupivacaine. There was a large interindividual variability of Cmax of both total and free bupivacaine. […] Note: Table 1.5 presents Geometric mean, ±68th percentile for Cmax rather than absolute min,max.

[5] = system: patients undergoing elective arthroscopic shoulder surgery; test: Example 1 / Study 1: pain intensity and opioid rescue after arthroscopic shoulder surgery; format: in vivo, human; details: 0-72 hours after surgery; ITT
pregnant rabbits = test: Embryo-fetal development study, subcutaneous, rabbits; format: in vivo; details: pregnant rabbits, subcutaneous; MRHD 660 mg
Description: (§2) There are no studies conducted with Formulation A in pregnant women. […] Based on animal data, advise pregnant women of the potential risks to a fetus. [see Data]
Bupivacaine hydrochloride was administered subcutaneously to rats at doses of 4.4, 13.3, & 40 mg/kg and to rabbits at doses of 1.3, 5.8, & 22.2 mg/kg during the period of organogenesis (implantation to closure of the hard palate). The high doses are approximately 0.6 times the daily maximum recommended human dose (MRHD) of 660 mg/day on a mg/m^2 body surface area (BSA) basis.

[6] = cited from earlier work
clinical [7] = details: human, in vivo; remark: listed apart in the source
From the text: Both bupivacaine and benzyl alcohol have been reported to be excreted in human milk.
Bupivacaine appears to cross the placenta by passive diffusion. The rate and degree of diffusion is governed by (1) the degree of plasma protein binding, (2) the degree of ionization, and (3) the degree of lipid solubility. Fetal/maternal ratios of local anesthetics appear to be inversely related to the degree of plasma protein binding, because only the free, unbound drug is available for placental transfer. Bupivacaine with a high protein binding capacity (95%) has a low fetal/maternal ratio (0.2 to 0.4). The extent of placental transfer is also determined by the degree of ionization and lipid solubility of the drug. Lipid soluble, non-ionized drugs such as bupivacaine readily enter the fetal blood from the maternal circulation.
The kidney is the main excretory organ for most local anesthetics and their metabolites. Urinary excretion is affected by urinary perfusion and factors affecting urinary pH. Only 6% of bupivacaine is excreted unchanged in the urine.

rats = test: Rat pre- and post-natal development study; format: in vivo; details: rat; MRHD 660 mg
Description: as §2
The high dose is approximately 0.6 times the daily MRHD of 660 mg/day on a BSA basis.

rat micronucleus = test: In vivo rat micronucleus assay
From the text: as §1

[8] = Example 14: peroxide content of SAIB / benzyl alcohol versus bupivacaine N-oxide; format: physicochemical
Description: Placebo compositions were composed of 75% w/w sucrose acetate isobutyrate (SAIB), and 25% w/w benzyl alcohol. Bupivacaine N-oxide in the sustained release bupivacaine compositions can be formed by an oxidative reaction between bupivacaine and peroxides.
The peroxide content for several lots of sucrose acetate isobutyrate were determined by potentiometric titration involving iodometric titration. The bupivacaine N-oxide levels in samples of Formulation A were determined using HPLC with UV detection.
All of the benzyl alcohol compositions had peroxide values of less than […]. The peroxide value can be converted to peroxide content, expressed as hydrogen peroxide, by multiplying PV by 17. […] The maximum contribution to peroxide content from benzyl alcohol is 85 ppm divided by 3, or 28 ppm.

[9] = Example 16: in vitro cumulative release of bupivacaine (USP Apparatus II); format: physicochemical; details: oven at 225° C. for 4 hours
From the text: To compare dissolution profiles, formulations having 12% w/w bupivacaine but differing ratios of sucrose acetate isobutyrate (SAIB)/solvent were made and tested as described in the below Methods and Materials. Table 16.1 is a summary of the compositions of the formulations tested.
To compare dissolution profiles, formulations having 12% w/w bupivacaine but differing ratios of sucrose acetate isobutyrate (SAIB)/solvent were made and tested as described below. Table 16.3 is a summary of the compositions of the formulations tested.
To compare dissolution profiles, a control formulation and a heat-stressed SAIB formulation were made and tested as described the below Methods and Materials. Both the control and heat-stressed SAIB formulations nominally consisted of 12% w/w bupivacaine, 22% w/w benzyl alcohol, and 66% w/w SAIB.
The bupivacaine formulations, other than the heat-stressed formulation, were prepared by dissolving appropriate amounts of bupivacaine in appropriate amounts of benzyl alcohol (BA), adding an appropriate amount of sucrose acetate isobutyrate (SAIB), and stirring not less than 45 minutes at about 35° C. For the heat-stressed SAIB formulation, the same process was followed except the SAIB was pre-heated in an oven at 225° C. for 4 hours before use. […]
Dissolution was measured using a USP Apparatus II. […]

[10] = Example 11: metal content by ICP-MS; format: physicochemical
Description: Sucrose acetate isobutyrate was tested for metal content as follows. The sample was prepared with a 0.1 g weighed portion mixed with 2 mL nitric acid and 0.5 mL hydrochloric acid for 1 hour on a block digestor set at 110° C. After cooling, 0.5 mL of 30% hydrogen peroxide was added, and the digestion resumed for 30 minutes (the material appeared dissolved). After cooling, internal standard solution was added and dilution with purified water to 20 g produced a solution for ICP-MS analysis. The results are shown below:
Formulation A was compounded using steel compounding tanks. Silicone tubing was used to transfer Formulation A. Formulation A was filled into glass vials, which were then sealed with fluorocarbon-coated stoppers.
Formulation A was tested for metal content as follows. The sample was prepared with a 0.2 g weighed portion mixed with 2 mL nitric acid, 1 mL hydrochloric acid, and 1 mL hydrofluoric acid, then digested in a closed-vessel microwave system (the material appeared dissolved). After cooling, internal standard solution was added and dilution with purified water to 50 g produced a solution for ICP-MS analysis.

Compound: Cc1cccc(C)c1N [2,6-Dimethlylaniline Standard]
- Observed Concentration of Standard ([1]; Experiment 1, Clear volumetric flask, Clear HPLC vial): 3.0 ng/mL and 3.1 ng/mL
- Observed Concentration of Standard ([1]; Experiment 2, Clear volumetric flask, Amber HPLC vial): 24.5 ng/mL and 28.4 ng/mL and 34.6 ng/mL and 38.1 ng/mL
- Observed Concentration of Standard ([1]; Experiment 3, Red volumetric flask, Clear HPLC vial): 3.0 ng/mL
- Observed Concentration of Standard ([1]; Experiment 4, Red volumetric flask, Amber HPLC vial): 14.9 ng/mL

Compound: CCCCN1CCCCC1C(=O)Nc1c(C)cccc1C (centres unmarked) [Bupivacaine, 1-butyl-N-(2,6-dimethylphenyl)-2-piperidinecarboxamide]
- Bacterial reverse mutation assay (Ames assay) result [2]: negative
- Chromosomal aberration assay result [3]: negative
- fraction unbound (clinical [4]): ~0.052
- Total IV morphine equivalent dose of opioid rescue medication, median [5]: 8 mg
- Dose with embryo-fetal lethality (pregnant rabbits): 0.6 times the maximum recommended human dose
- Excreted unchanged in the urine ([6]; human, in vivo): 6%
- Protein binding capacity ([6]; plasma): 95%
- Cmax (clinical [7]): 2850 ng/mL
- Dose with decreased pup survival (rats): 0.6 times the maximum recommended human dose
- Rat micronucleus assay result (rat micronucleus): negative

Compound: OCc1ccccc1 [benzyl alcohol]
- Peroxide content, expressed as hydrogen peroxide ([8]; PV multiplied by 17): < 8.5 ppm
- Peroxide value (PV) ([8]; all lots): less than 0.5
- Effective peroxide contribution to formation of bupivacaine N-oxide ([8]; divided by 3): < 2.8 ppm

Compound: sucrose acetate isobutyrate [SAIB]
- SAIB remaining after pre-heating [9]: 98%
- Gold ([10]; Detection Limit 0.02): 0.4 ppm
- Tin ([10]; Detection Limit 0.04): 0.0 ppm
- Iron ([10]; Detection Limit 1): 2 ppm
- Peroxide content in SAIB corresponding to 0.8% bupivacaine N-oxide ([8]; linear regression, FIG. 14): 232.5 ppm
- Peroxide in SAIB corresponding to the 1.0% specification limit for bupivacaine N-oxide ([8]; linear regression, FIG. 14): 296.4 ppm

Compound: Cc1cccc(C)c1N [2,6-dimethylaniline]
- 2,6-dimethylaniline concentration found ([1]; Experiment 1: clear flask, clear HPLC vials, 3 ng/mL prepared): ~3 ng/mL
- 2,6-dimethylaniline concentration relative to Experiment 1 ([1]; Experiment 3: red RAY-SORB flask, clear HPLC vial): same
- 2,6-dimethylaniline content relative to Experiments 1 and 3 ([1]; Experiment 4: red RAY-SORB flask, amber HPLC vial): approximately 5 times higher
